Laboratory results: patent publication US20250228882A1, “ORALLY-BIOAVAILABLE NUCLEOSIDE ANALOGS” (Venatorx Pharmaceuticals, Inc., priority 2022, published 2025)
Read-outs that look alike come from different tables or passages of the source.

Assays:
[1] = Bidirectional Caco-2 permeability assay; format: in vitro ADME; details: human, Caco-2
Summary of the method: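 Caco-2 monolayers (passage 39, 19-day culture, TEER >600 Ohms/cm^2) dosed A→B and B→A in duplicate, 90 min at 37 °C without shaking. Donor and receiver samples at 10 and 90 min quantified by LC/MS/MS. Papp (cm/s), efflux ratio and recovery calculated; ER >2 flags potential efflux substrate.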

[2] = Stability in human fasted-state simulated gastric fluid and fasted-state simulated intestinal fluid; format: physicochemical; details: timepoints 0-120 min
Protocol: The chemical stability of example compounds was determined using human fasted-state simulated gastric fluid, and fasted-state simulated intestinal fluid, prepared as follows.
• Weigh 1.0 g NaCl and dissolved it in 0.49 L water • Adjust pH value to 1.2, and adjust volume to 0.5 L in water • Filter the NaCl/HCl buffer through a 0.22 μm filter • Weigh 3.0 mg FaSSGF powder (Vendor: Biorelevant, catalog #FFF01), dissolve it in 50 mL NaCl/HCl buffer • Dissolve the FaSSGF powder in NaCl/HCl buffer and make up the volume to 50 mL • Store at 4° C. for future use.
• Weigh 0.695 g NaOH, 1.115 g maleic acid and 2.005 g NaCl, and dissolve in 0.49 L water • Adjusted the pH value to 6.8 and adjust volume to 0.5 L with water • Filter the maleic acid buffer through a 0.22 μm filter • Weigh 89.5 mg FaSSIF-V2 powder (Vendor: Biorelevant catalog #V2FAS01), dissolve in 50 mL maleic buffer • Dissolve the FaSSIF-V2 powder in maleic buffer and make up the volume to 50 mL • Store at 4° C. for future use.
Briefly, test compounds were prepared as 50 μM working solutions in DMSO, and 2 μL test compound working solution was added to 98 μL of each buffer respectively in six tubes (for six timepoints, 0, 5, 15, 30, 60, and 120 min) and gently mixed. At each corresponding timepoint, the reaction was stopped by addition of 300 μL of quenching solution (methanol solution of 5 ng/mL terfenadine and 10 ng/mL of tolbutamide). Each tube was vortexed for 1 min, centrifuged at 4,000 rpm at 4° C. for 15 min, then 200 μL of supernatant was removed. The half-life of each example compound was determined using LC-MS/MS analysis, using the internal standards present in the quenching solution.

[3] = fasted-state simulated gastric fluid (FaSSGF), human fasted-state simulated gastric fluid, pH 1.2, LC-MS/MS, read-out: FaSSGF t1/2
[4] = human fasted-state simulated intestinal fluid (FaSSIF-V2), pH 6.8, LC-MS/MS, read-out: FaSSIF t1/2

SMILES	Papp A→B at 90 min [1] [×10⁻⁶ cm/s]	Papp B→A at 90 min [1] [×10⁻⁶ cm/s]	efflux ratio at 90 min [1]	half-life at 1 µM [2, 3] [h]	half-life at 1 µM [2, 4] [h]
CCCC(=O)Nc1ncnn2c([C@]3(C#N)O[C@H](COC(=O)CC4CCCCC4)[C@@H](OC(=O)[C@@H](N)C(C)(C)C)[C@H]3O)ccc12 [Compound 1, (2R,3S,4R,5R)-5-(4-butyramidopyrrolo[2,1-f][1,2,4]triazin-7-yl)-5-cyano-2-((2-cyclohexylacetoxy)methyl)-4-hydroxytetrahydrofuran-3-yl (S)-2-amino-3,3-dimethylbutanoate]	6.8	8.72	1.28	1.61	> 6.22
CCC(CC)C(=O)Nc1ncnn2c([C@]3(C#N)O[C@H](COC(=O)CC4CCCCC4)[C@@H](OC(=O)[C@@H](N)C(C)(C)C)[C@H]3O)ccc12 [Compound 2, (2R,3S,4R,5R)-5-cyano-2-((2-cyclohexylacetoxy)methyl)-5-(4-(2-ethylbutanamido)pyrrolo[2,1-f][1,2,4]triazin-7-yl)-4-hydroxytetrahydrofuran-3-yl (S)-2-amino-3,3-dimethylbutanoate]	4.08	6.13	1.5	> 6.22	> 6.22
COC(C)(C)C(=O)Nc1ncnn2c([C@]3(C#N)O[C@H](COC(=O)CC4CCCCC4)[C@@H](OC(=O)[C@@H](N)C(C)(C)C)[C@H]3O)ccc12 [Compound 3, (2R,3S,4R,5R)-5-cyano-2-((2-cyclohexylacetoxy)methyl)-4-hydroxy-5-(4-(2-methoxy-2-methylpropanamido)pyrrolo[2,1-f][1,2,4]triazin-7-yl)tetrahydrofuran-3-yl (S)-2-amino-3,3-dimethylbutanoate]	8.49	9.3	1.1	0.347	> 6.22
CC(C)(C)[C@@H](N)C(=O)OC[C@H]1O[C@@](C#N)(c2ccc3c(N)ncnn23)[C@H](O)[C@@H]1OC(=O)CC1CCCCC1 [Compound 37, ((2R,3S,4R,5R)-5-(4-aminopyrrolo[2,1-f][1,2,4]triazin-7-yl)-5-cyano-3-(2-cyclohexylacetoxy)-4-hydroxytetrahydrofuran-2-yl)methyl (R)-2-amino-3,3-dimethylbutanoate]	–	–	2.95	> 6.21	> 6.21
CCC(CC)C(=O)Nc1ncnn2c([C@]3(C#N)O[C@H](COC(=O)CC4CCCCCC4)[C@@H](OC(=O)[C@H](N)C(C)(C)C)[C@H]3O)ccc12 [Compound 77, (2R,3S,4R,5R)-5-cyano-2-((2-cycloheptylacetoxy)methyl)-5-(4-(2-ethylbutanamido)pyrrolo[2,1-f][1,2,4]triazin-7-yl)-4-hydroxytetrahydrofuran-3-yl (R)-2-amino-3,3-dimethylbutanoate]	1	1.6	1.7	–	–
